# Experimental data as given in patent US20240018611A1, “IMMUNE MOLECULE VIRUS PARTICLE DETECTION KIT” (priority 2021, published 2024).
# Tests used:
# HBV [1] = assay: HBV DNA in supernatant of ETV-treated HepAD38 cells (immune capture of virus particles + qPCR); assay type: cell-based, hepatitis B virus (HBV)
# Experimental: (§1) The inventor selects the supernatant of HBV-secreting cells ([…] and HepAD38) for testing and verification. HepG2.2.15 and HepAD38 are the two cell lines that are commonly used in the laboratory to stably express HBV, and entecavir (ETV) is the first-line drug in clinical treatment of hepatitis B at present. The inventor uses different concentration gradients of ETV (0.1 μM, 1 μM, 10 μM, PBS as control group). Then, the virus particles are captured by virus particle-antibody (the envelope PreS1 monoclonal antibody and the core particle HBc monoclonal antibody)-biotin-streptavidin-magnetic beads, and the genomic DNA of HBV in the corresponding virus particles is detected.
# (§2) In order to study the dynamic changes of HBV DNA with different components, two cell lines, HepG2.2.15 and HepAD38, which stably express HBV, are pretreated with different concentration gradients of ETV (0.1 μM, 1 μM, 10 μM and a PBS control group), and the supernatant is discarded after 24 hours, and replaced with fresh Dulbecco's modified eagle medium (DMEM) and ETV with different concentration gradients. After 72 hours, the supernatant is transferred to an EP tube, and the virus particles in the supernatant are captured by PreS1 antibody-magnetic beads and HBc antibody-magnetic beads respectively, and the captured products are detected by qPCR.
# HBV [2] = assay: HBV DNA in supernatant of ETV-treated HepG2.2.15 cells (immune capture of virus particles + qPCR); assay type: cell-based, hepatitis B virus (HBV)
# Experimental: as §1, §2
# The above research results mean that the capture method can separate and capture virus particles in cell supernatant. […] The same conclusion is obtained in HepAD38 cell experiment (FIGS. 10A-10B).
# [3] = ETV 0.1 μM, 1 μM, 10 μM, PBS control, antibody-biotin-streptavidin-magnetic bead capture, FIGS. 2A-2B
structure (smiles),measurement,setting,value
"C=C1[C@H](CO)[C@@H](O)C[C@@H]1n1cnc2c(=O)[nH]c(N)nc21 [ETV, entecavir]","viral genomic DNA (total, complete virus particles, core particles) in cell supernatant versus ETV concentration",HBV [1]; [3],"The higher the concentration of ETV, the lower the viral genomic DNA detected by the three methods"
same,"total HBV genomic DNA, complete virus particle genomic DNA and virus core particle DNA over time","HBV [1]; ETV 1 uM, FIGS. 2C-2D",all decreased rapidly in two days
same,"viral genomic DNA (total, complete virus particles, core particles) in cell supernatant versus ETV concentration",HBV [2]; [3],"The higher the concentration of ETV, the lower the viral genomic DNA detected by the three methods"
same,copies of HBV DNA in the supernatant,"HBV [2]; ETV 0.1 μM, 1 μM, 10 μM, supernatant after 72 hours, PreS1/HBc antibody-magnetic bead capture, FIGS. 9A-9B",decreased in a dose-dependent manner
same,"total HBV genomic DNA, complete virus particle genomic DNA and virus core particle DNA over time","HBV [2]; ETV 1 uM, FIGS. 2C-2D",all decreased rapidly in two days
